Measurements: US20240058460A1, “METHODS AND COMPOUNDS FOR MODULATING HUNTINGTON'S DISEASE” (Design Therapeutics, Inc., priority 2022, published 2024)

Tests used:
Assay type in all cases: cell-based
[1] = system: human HTT C allele (SNP rs362331C/T) mRNA in GM09197 fibroblasts; assay: HTT mRNA, allele-specific RT-PCR in GM09197 fibroblasts, C allele; conditions: for GM 09197 E min 48 Hr C Allele (%): lowest % HTT observed at 0.5 nM to 1000 nM compound
Description: (§1) Molecular Biology Toolkit: • qPCR primer probe sets: • RNA input normalization was assessed utilizing human glyceraldehyde 3-phosphate dehydrogenase (hGAPDH) TaqMan assay (ThermoFisher cat #4351370) or Human Cyclophillin ([…]) TaqMan assay (ThermoFisher cat #4351372) • Total HTT detection was assessed utilizing human Htt TaqMan assay (ThermoFisher cat #4331182) • Allele-specific detection of human HTT expression in HD cells containing the SNP rs362331C/T (Exon 50): for each assay, allele-specific probes to detect the SNP variant contained locked nucleic acid bases to improve allele discrimination, as compared to unmodified DNA probes. • 362331-F (331 forward primer) • 362331-R (331 reverse primer) • 362331-C probe: TCC CTC ATC+C+AC TGT GT • 362331-T probe: CTC+A+T+C+T+A+C TGT GT • qPCR was performed using Agpath ID one-step reverse transcriptase polymerase chain reaction (RT-PCR) reagent
(§2) Screening of HD molecules methods: GM09197 and/or GM04022 fibroblasts were cultured in T175 flasks incubated at 37° C. and 5% CO2. Once confluency was reached, the media was removed, the cells were washed with 1×PBS, and cells were dissociated using TrypLE™ Express Enzyme. Media was added to the enzyme and collected into a 15-mL conical tube and centrifuged at 500×g for 5 minutes to pellet the cells. Media and enzyme were aspirated using a serological pipette. Cells were resuspended in fresh media and counted using a Countess 3 Automated Cell Counter. Cells were plated at a density of 15,000 cells/well in a tissue culture-treated polystyrene 96-well dish and incubated at 37° C. and 5% CO2 overnight. The next day, media was removed using an 8-channel aspirator. 200 μL media/well are added back into the plate. The molecules are formulated to 1 mM and are dispensed using a Multidrop™ Pico 8 Digital Dispenser. After a 48-hour incubation with compounds, media was removed from plates, cells were washed with 1×PBS, and cells were lysed in 40 μL per well guanidinium thiocyanate buffer. RNA was isolated and purified in 382-well glass fiber column plates using chaotropic salts. Human mtHTT, wtHTT, and GAPDH mRNA were measured via RT-PCR using the ThermoFisher QuantStudio™ 7 Flex System in 384-well format. Results of HTT levels were normalized to GAPDH mRNA levels. Normalized HTT mRNA levels were expressed relative to vehicle-treated samples to assess fold change after molecule treatment.
(§3) Emin for each compound is the lowest % HTT concentration observed within a compound concentration of 0.5 nM to 1000 nM.

[2] = system: human HTT T allele (SNP rs362331C/T) mRNA in GM09197 fibroblasts; assay: HTT mRNA, allele-specific RT-PCR in GM09197 fibroblasts, T allele; conditions: for IC50: Homo sapiens, Fibroblast, 48 hr, T allele HTT mRNA normalized to GAPDH, relative to vehicle; for Gm09197 Emin 48 hr T Allele (%): lowest % HTT observed at 0.5 nM to 1000 nM compound
Description: as §1, §2, §3

[3] = system: human HTT C allele (SNP rs362331C/T) mRNA in GM04022 fibroblasts; assay: HTT mRNA, allele-specific RT-PCR in GM04022 fibroblasts, C allele; conditions: for GM 04022Emin 48 hr C Allele: lowest % HTT observed at 0.5 nM to 1000 nM compound
Description: as §1
as §2, with “After a 48-hour incubation with compounds, media was removed from plates, cells were washed with 1×PBS, and cells were lysed in 40 μL per well guanidinium thiocyanate buffer. RNA was isolated and purified in 382-well glass fiber column plates using chaotropic salts.” left out, “Results of HTT levels were normalized to GAPDH mRNA levels. Normalized HTT mRNA levels were expressed relative to vehicle-treated samples to assess fold change after molecule treatment.” left out

[4] = system: human HTT T allele (SNP rs362331C/T) mRNA in GM04022 fibroblasts; assay: HTT mRNA, allele-specific RT-PCR in GM04022 fibroblasts, T allele; conditions: for IC50: Homo sapiens, Fibroblast, 48 hr, T allele HTT mRNA normalized to GAPDH, relative to vehicle; for GM04022 Emin 48 hr T Allele: lowest % HTT observed at 0.5 nM to 1000 nM compound
Description: as §1, §2, §3

[5] = Homo sapiens, Fibroblast, 48 hr, C allele HTT mRNA normalized to GAPDH, relative to vehicle

Compound	GM 09197 E min 48 Hr C Allele (%) [1]	IC50 [2] [nM]	Gm09197 Emin 48 hr T Allele (%) [2]	GM 04022Emin 48 hr C Allele [3]	IC50 [4] [nM]	GM04022 Emin 48 hr T Allele [4]	IC50 [1, 5] [nM]	IC50 [3, 5] [nM]
Cn1cc(NC(=O)c2nc(NC(=O)CCNC(=O)c3cc(NC(=O)c4nccn4C)cn3C)cn2C)cc1C(=O)NCCCC(=O)Nc1cn(C)c(C(=O)NCCC(=O)Nc2cc(C(=O)Nc3cn(C)c(C(=O)NCCC(=O)NCCOCCOCCOCCOCCOCCOCCOCCOCCOCCOCCOCCOCCOCCOCCOCCOc4ccc(NC(=O)c5cc6c(-c7cc(S(C)(=O)=O)ccc7Oc7ccc(F)cc7F)cn(C)c(=O)c6[nH]5)cc4)n3)n(C)c2)n1 [Compound A-2]	A (A>90%)	32	C (C<80%)	A (A>90%)	> 1000	C (C<80%)		
C/C=C/Cn1cc(-c2cc(OC)c(C(=O)N3CCN(CCOCCOCCOCCOCCOCCOCCOCCOCCOCCOCCOCCOCCOCCOCCOCCNC(=O)CCNC(=O)c4nc(NC(=O)c5cc(NC(=O)CCNC(=O)c6nc(NC(=O)CCCNC(=O)c7cc(NC(=O)c8nc(NC(=O)CCNC(=O)c9cc(NC(=O)c%10nccn%10C)cn9C)cn8C)cn7C)cn6C)cn5C)cn4C)CC3)cc2OC)c2cc[nH]c2c1=O [Compound A-76]	A (A>90%)	> 1000	A (A>90%)	A (A>90%)	> 1000	A (A>90%)	> 1000	> 1000
